Assay results reported in paper PMC11851430, “Workflow for E3 Ligase Ligand Validation for PROTAC Development” (ACS Chemical Biology, 2025).

Assays:
CDK2A = target: T1, CDK2A (Homo sapiens, UniProt P24941); assay: DSF assay; format: binding; details: 20 µM compound
T1 construct: purchased in-house DSF panel (SGC-style construct names; the trailing A/B is a construct suffix)

DYRK1A = target: T2, DYRK1A (Homo sapiens, UniProt Q13627); assay: DSF assay; format: binding; details: 20 µM compound
T2 construct: purchased in-house DSF panel (SGC-style construct names; the trailing A/B is a construct suffix)

GAKA = target: T3, GAKA (Homo sapiens, UniProt O14976); assay: DSF assay; format: binding; details: 20 µM compound
T3 construct: purchased in-house DSF panel (SGC-style construct names; the trailing A/B is a construct suffix)
T3 sequence (O14976 14-351): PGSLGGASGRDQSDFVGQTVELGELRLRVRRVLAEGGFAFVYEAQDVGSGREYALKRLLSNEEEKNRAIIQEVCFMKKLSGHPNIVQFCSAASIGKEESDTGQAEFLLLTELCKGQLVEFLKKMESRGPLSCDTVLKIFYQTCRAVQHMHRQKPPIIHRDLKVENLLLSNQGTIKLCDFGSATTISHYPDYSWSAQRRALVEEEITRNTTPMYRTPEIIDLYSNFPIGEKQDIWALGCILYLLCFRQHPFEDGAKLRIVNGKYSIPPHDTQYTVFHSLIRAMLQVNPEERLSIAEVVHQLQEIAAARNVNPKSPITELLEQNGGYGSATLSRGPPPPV

MAPK14A = target: T4, MAPK14A (Homo sapiens, UniProt Q16539); assay: DSF assay; format: binding; details: 20 µM compound
T4 construct: purchased in-house DSF panel (SGC-style construct names; the trailing A/B is a construct suffix)

MAPK1A = target: T5, MAPK1A (Homo sapiens, UniProt P28482); assay: DSF assay; format: binding; details: 20 µM compound
T5 construct: purchased in-house DSF panel (SGC-style construct names; the trailing A/B is a construct suffix)

MAPK6 = target: T6, MAPK6 (Homo sapiens, UniProt Q16659); assay: DSF assay; format: binding; details: 20 µM compound
T6 construct: purchased in-house DSF panel (SGC-style construct names; the trailing A/B is a construct suffix)

PCTK1A = target: T7, PCTK1A (Homo sapiens, UniProt Q00536); assay: DSF assay; format: binding; details: 20 µM compound
T7 construct: purchased in-house DSF panel (SGC-style construct names; the trailing A/B is a construct suffix)

PDK4A = target: T8, PDK4A (Homo sapiens, UniProt Q16654); assay: DSF assay; format: binding; details: 20 µM compound
T8 construct: purchased in-house DSF panel (SGC-style construct names; the trailing A/B is a construct suffix)

RPS6K5A = assay: DSF assay; format: binding; details: 20 µM compound
STK10A = target: T9, STK10A (Homo sapiens, UniProt O94804); assay: DSF assay; format: binding; details: 20 µM compound
T9 construct: purchased in-house DSF panel (SGC-style construct names; the trailing A/B is a construct suffix)

WNK1A = target: T10, WNK1A (Homo sapiens, UniProt Q9H4A3); assay: DSF assay; format: binding; details: 20 µM compound
T10 construct: purchased in-house DSF panel (SGC-style construct names; the trailing A/B is a construct suffix)

[1] = target: T11, kinase protein levels in MCF-7 cells (Homo sapiens, UniProt A0A096LP01); assay: TMT-labeled quantitative proteomics; format: cell-based; details: protein LINC00493
T11 construct: endogenous in cells; host or cells: MCF-7

[2] = system: kinase protein levels in MCF-7 cells; assay: TMT-labeled quantitative proteomics; format: cell-based, human

T11 sequence (A0A096LP01 whole entry): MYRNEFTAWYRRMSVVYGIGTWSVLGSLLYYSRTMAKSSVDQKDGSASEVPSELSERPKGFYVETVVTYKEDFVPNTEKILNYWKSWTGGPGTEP
T8 sequence (Q16654 whole entry): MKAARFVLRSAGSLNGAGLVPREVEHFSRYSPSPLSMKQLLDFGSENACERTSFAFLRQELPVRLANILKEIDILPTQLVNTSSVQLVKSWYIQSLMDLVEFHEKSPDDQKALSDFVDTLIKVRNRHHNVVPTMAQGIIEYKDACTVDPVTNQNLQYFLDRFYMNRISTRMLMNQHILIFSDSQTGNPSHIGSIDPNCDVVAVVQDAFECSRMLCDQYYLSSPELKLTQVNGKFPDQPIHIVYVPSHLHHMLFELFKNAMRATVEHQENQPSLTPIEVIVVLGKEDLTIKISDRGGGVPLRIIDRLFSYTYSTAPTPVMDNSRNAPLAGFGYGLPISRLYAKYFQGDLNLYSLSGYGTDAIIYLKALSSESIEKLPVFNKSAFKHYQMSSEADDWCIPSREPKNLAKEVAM
T7 sequence (Q00536 163-478): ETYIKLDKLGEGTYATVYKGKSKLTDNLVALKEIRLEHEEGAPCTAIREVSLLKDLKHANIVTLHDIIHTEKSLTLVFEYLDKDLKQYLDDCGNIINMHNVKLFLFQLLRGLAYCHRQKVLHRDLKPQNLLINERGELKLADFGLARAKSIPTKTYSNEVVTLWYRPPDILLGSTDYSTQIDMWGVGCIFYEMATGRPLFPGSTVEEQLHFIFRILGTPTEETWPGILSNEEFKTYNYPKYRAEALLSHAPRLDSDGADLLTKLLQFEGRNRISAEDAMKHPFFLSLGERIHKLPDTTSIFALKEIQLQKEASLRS
T9 sequence (O94804 18-317): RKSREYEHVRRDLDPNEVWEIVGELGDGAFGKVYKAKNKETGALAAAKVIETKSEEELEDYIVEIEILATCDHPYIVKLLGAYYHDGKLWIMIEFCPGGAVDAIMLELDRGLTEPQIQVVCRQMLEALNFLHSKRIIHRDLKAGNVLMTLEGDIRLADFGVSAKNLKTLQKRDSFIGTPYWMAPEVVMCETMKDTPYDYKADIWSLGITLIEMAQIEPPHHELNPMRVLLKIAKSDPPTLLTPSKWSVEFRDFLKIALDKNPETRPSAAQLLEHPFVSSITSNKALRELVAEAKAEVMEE
T6 sequence (Q16659 9-327): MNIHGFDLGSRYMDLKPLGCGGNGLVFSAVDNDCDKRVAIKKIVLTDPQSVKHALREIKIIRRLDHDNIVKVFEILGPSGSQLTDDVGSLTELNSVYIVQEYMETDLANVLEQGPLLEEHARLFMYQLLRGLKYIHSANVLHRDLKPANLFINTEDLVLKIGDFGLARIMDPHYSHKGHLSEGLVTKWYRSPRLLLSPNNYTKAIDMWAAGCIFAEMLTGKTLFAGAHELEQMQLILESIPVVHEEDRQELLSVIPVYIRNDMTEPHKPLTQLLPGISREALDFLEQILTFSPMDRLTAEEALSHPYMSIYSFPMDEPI
T4 sequence (Q16539 whole entry): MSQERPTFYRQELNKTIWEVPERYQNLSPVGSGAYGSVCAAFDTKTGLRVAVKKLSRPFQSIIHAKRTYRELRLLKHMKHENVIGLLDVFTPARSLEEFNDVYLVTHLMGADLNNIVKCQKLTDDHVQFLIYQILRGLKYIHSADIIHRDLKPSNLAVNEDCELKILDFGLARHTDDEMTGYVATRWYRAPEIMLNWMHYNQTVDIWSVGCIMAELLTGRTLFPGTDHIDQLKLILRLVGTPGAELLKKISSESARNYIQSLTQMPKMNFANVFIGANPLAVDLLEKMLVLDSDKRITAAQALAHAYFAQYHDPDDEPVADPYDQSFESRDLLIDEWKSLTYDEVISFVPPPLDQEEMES
T5 sequence (P28482 whole entry): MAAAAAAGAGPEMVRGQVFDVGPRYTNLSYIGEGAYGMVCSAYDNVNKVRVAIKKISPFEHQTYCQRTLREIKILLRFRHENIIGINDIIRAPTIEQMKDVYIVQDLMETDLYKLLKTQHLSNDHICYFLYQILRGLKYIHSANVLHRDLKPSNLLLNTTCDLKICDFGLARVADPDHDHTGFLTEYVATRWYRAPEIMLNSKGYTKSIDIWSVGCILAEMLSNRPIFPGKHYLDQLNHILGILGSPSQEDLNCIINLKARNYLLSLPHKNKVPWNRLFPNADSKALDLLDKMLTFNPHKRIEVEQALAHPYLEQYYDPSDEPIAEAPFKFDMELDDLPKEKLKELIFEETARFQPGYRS
T10 sequence (Q9H4A3 206-483): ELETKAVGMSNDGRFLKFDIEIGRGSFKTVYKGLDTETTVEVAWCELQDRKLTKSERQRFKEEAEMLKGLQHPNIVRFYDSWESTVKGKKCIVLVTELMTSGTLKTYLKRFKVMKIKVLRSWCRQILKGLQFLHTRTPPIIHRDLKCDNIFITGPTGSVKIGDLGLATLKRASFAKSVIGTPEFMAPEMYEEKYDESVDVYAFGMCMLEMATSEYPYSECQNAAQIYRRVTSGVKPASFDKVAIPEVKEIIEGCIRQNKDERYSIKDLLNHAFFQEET

Question: `CCOC(=O)c1cc(Nc2cc(C3CC3)[nH]n2)nc(Nc2ccc(CC#N)cc2)n1` [compound 5] was tested. Which ΔTm at 20 µM (CDK2A) did it give?
Answer: Its ΔTm at 20 µM is 12.5 °C.

Question: What about the ΔTm at 20 µM (DYRK1A) of the same molecule?
Answer: Its ΔTm at 20 µM is 6.85 °C.

Question: What about the ΔTm at 20 µM (GAKA) of the same molecule?
Answer: The ΔTm at 20 µM was 4.56 °C.

Question: And the ΔTm at 20 µM (MAPK14A)?
Answer: Its ΔTm at 20 µM is 0.11 °C.

Question: What about the ΔTm at 20 µM (MAPK1A) of the same molecule?
Answer: Its ΔTm at 20 µM is 4.85 °C.

Question: What about the ΔTm at 20 µM (MAPK6) of the same molecule?
Answer: Its ΔTm at 20 µM is -0.45 °C.

Question: What about the ΔTm at 20 µM (PCTK1A) of the same molecule?
Answer: The ΔTm at 20 µM was 5.96 °C.

Question: And the ΔTm at 20 µM (PDK4A)?
Answer: Its ΔTm at 20 µM is 0.03 °C.

Question: And the ΔTm (RPS6K5A)?
Answer: Its ΔTm is 14.62 °C.

Question: What about the ΔTm at 20 µM (STK10A) of the same molecule?
Answer: Its ΔTm at 20 µM is 9.37 °C.

Question: And the ΔTm at 20 µM (WNK1A)?
Answer: The ΔTm at 20 µM was 0.55 °C.

Question: And the “P.Value (compound/DMSO)” value ([1]; MCF7, 2.5 µM, set3)?
Answer: The value was 0.03457.

Question: And the “log2FC (compound/DMSO)” value ([1]; MCF7, 2.5 µM, set3)?
Answer: Its value is -0.4501.

Question: And the “P.Value (compound/DMSO)” value ([1]; MCF, 0.25µM, set4)?
Answer: The value was 0.002655.

Question: And the “log2FC (compound/DMSO)” value ([1]; MCF, 0.25µM, set4)?
Answer: Its value is 0.2815.

Question: And the “kinase downregulation profile compared with Jurkat cells” value ([2]; MCF-7 cells, 0.25 μM, 6 h)?
Answer: The value was “comparable downregulation profiles”.

Question: And the “log2FC (compound/DMSO)” value ([2]; protein NBPF19;NBPF8;NBPF10;NBPF15;NBPF26;NBPF14;NBPF1;NBPF12, MCF, 0.25µM, set4)?
Answer: Its value is 0.03286.

Question: What about the “log2FC (compound/DMSO)” value ([2]; protein NBPF19;NBPF8;NBPF26;NBPF14;NBPF12;NBPF10;NBPF15;NBPF1, MCF7, 2.5 µM, set3) of the same molecule?
Answer: Its value is -0.1342.

Question: What about the “log2FC (compound/DMSO)” value ([2]; protein NUDT4;NUDT11;NUDT10, MCF, 0.25µM, set4) of the same molecule?
Answer: Its value is 0.03432.

Question: What about the “log2FC (compound/DMSO)” value ([2]; protein UQCRHL;UQCRH, MCF, 0.25µM, set4) of the same molecule?
Answer: Its value is 0.1631.
